Earlier results on one molecule are cited in patent US11058138B2, “Composition for calcium supplementation” (ABIOGEN PHARMA S.P.A., priority 2017, dated 2021).

For this data set the following is noted: versus calcium carbonate.

`O=C([O-])CC(O)(CC(=O)[O-])C(=O)[O-].O=C([O-])CC(O)(CC(=O)[O-])C(=O)[O-].[Ca+2].[Ca+2].[Ca+2]` [calcium citrate]: the “Bioavailability higher than that of calcium carbonate” value is reported as 20-30%.
